Data published in patent US12458021B2, “Microbiocidal derivatives” (SYNGENTA CROP PROTECTION AG, priority 2019, dated 2025).

Tests used:
[1] = system: Glomerella lagenarium (Colletotrichum lagenarium); assay: Glomerella lagenarium (Colletotrichum lagenarium) / liquid culture (anthracnose); format: cell-based; settings: Colletotrichum orbiculare, PDB potato dextrose broth, 24° C., 3-4 days after application, read-out: control of Glomerella lagenarium (inhibition of growth, photometric)
Procedure, shortened: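 Conidia from cryogenic storage suspended in potato dextrose broth and added to DMSO compound solution in plates. Incubated at 24° C; growth inhibition read photometrically 3-4 days after application.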

[2] = system: Monographella nivalis (Microdochium nivale); assay: Monographella nivalis (Microdochium nivale) / liquid culture (foot rot cereals); format: cell-based; settings: PDB potato dextrose broth, 24° C., 4-5 days after application, read-out: control of Monographella nivalis (inhibition of growth, photometric)
Procedure, shortened: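 Cryostored M. nivalis conidia mixed into potato dextrose broth and added to 96-well plates holding test compound in DMSO. Incubated at 24° C; growth inhibition read photometrically 4-5 days after application.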

[3] = system: Puccinia recondita f. sp. tritici; assay: Puccinia recondita f. sp. tritici / wheat / leaf disc preventative (brown rust); format: in vivo; settings: foliar, wheat leaf segments cv. Kanzler, inoculated 1 day after application, assessed 7-9 days after application, read-out: control of Puccinia recondita f. sp. tritici, preventative (percent disease control compared to untreated)
Procedure: Example B11: Puccinia recondita f. sp. tritici/Wheat/Leaf Disc Preventative (Brown Rust) Wheat leaf segments cv. Kanzler are placed on agar in multiwell plates (24-well format) and sprayed with the formulated test compound diluted in water. The leaf disks are inoculated with a spore suspension of the fungus 1 day after application. The inoculated leaf segments are incubated at 19° C. and 75% rh under a light regime of 12 h light/12 h darkness in a climate cabinet and the activity of a compound is assessed as percent disease control compared to untreated when an appropriate level of disease damage appears in untreated check leaf segments (7-9 days after application). […] […]-190.

[4] = system: Mycosphaerella graminicola (Septoria tritici); assay: Mycosphaerella graminicola (Septoria tritici) / liquid culture (Septoria blotch); format: cell-based; settings: Zymoseptoria tritici, PDB potato dextrose broth, 24° C., 4-5 days after application, read-out: control of Mycosphaerella graminicola (inhibition of growth, photometric)
Procedure, shortened: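 Conidia from cryogenic storage were mixed into potato dextrose broth and added to test compound in DMSO. Plates were incubated at 24° C, and growth inhibition was read photometrically 4-5 days after application.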

[5] = system: Blumeria graminis f. sp. tritici (Erysiphe graminis f. sp. tritici); assay: Blumeria graminis f. sp. tritici / wheat / leaf disc preventative (powdery mildew on wheat); format: in vivo; settings: foliar, wheat leaf segments cv. Kanzler, inoculated 1 day after application, assessed 6-8 days after application, read-out: control of Blumeria graminis f. sp. tritici (percent disease control compared to untreated)
Description: Example B4: Blumeria graminis f. sp. tritici (Erysiphe graminis f. sp. tritici)/Wheat/Leaf Disc Preventative (Powdery Mildew on Wheat) Wheat leaf segments cv. Kanzler are placed on agar in a multiwell plate (24-well format) and sprayed with the formulated test compound diluted in water. The leaf disks are inoculated by shaking powdery mildew infected plants above the test plates 1 day after application. […] […]-192.

[6] = system: Magnaporthe grisea (Pyricularia oryzae); assay: whole plant or invertebrate; format: in vivo; settings: foliar, read-out: control of Magnaporthe grisea (percent disease control compared to untreated)

Structure (SMILES) | inhibition at 20 ppm [1] [%] | inhibition at 20 ppm [2] [%] | pest or weed control at 200 ppm [3] [%] | inhibition at 20 ppm [4] [%] | pest or weed control at 200 ppm [5] [%] | pest or weed control at 200 ppm [6] [%]
CC1(C)CCC1NC(=O)c1nc(Nc2cc(F)nc(F)c2)ccc1O (centres unmarked) [Compound P-1, 6-[(2,6-difluoro-4-pyridyl)amino]-N-(2,2-dimethylcyclobutyl)-3-hydroxy-pyridine-2-carboxamide] | ≥ 80 | ≥ 80 | ≥ 80 | ≥ 80 | – | –
COc1ccc(N(C#N)c2cc(F)nc(F)c2)nc1C(=O)NC1CCC1(C)C (centres unmarked) [Compound P-21, 6-[cyano-(2,6-difluoro-4-pyridyl)amino]-N-(2,2-dimethylcyclobutyl)-3-methoxy-pyridine-2-carboxamide] | – | – | ≥ 80 | – | ≥ 80 | ≥ 80
COc1ccc(Nc2cc(F)nc(F)c2)nc1C(=O)NCC(C)(C)C [Compound P-30, 6-[(2,6-difluoro-4-pyridyl)amino]-N-(2,2-dimethylpropyl)-3-methoxy-pyridine-2-carboxamide] | ≥ 80 | – | ≥ 80 | ≥ 80 | ≥ 80 | ≥ 80
COc1ccc(Nc2cc(F)nc(F)c2)nc1C(=O)NCCc1ccccc1 [Compound P-31, 6-[(2,6-difluoro-4-pyridyl)amino]-3-methoxy-N-(2-phenylethyl)pyridine-2-carboxamide] | – | – | ≥ 80 | – | – | –
COc1ccc(Nc2cc(F)nc(F)c2)nc1C(=O)NC1CCc2cc(C(F)(F)F)ccc21 (centres unmarked) [Compound P-47, 6-[(2,6-difluoro-4-pyridyl)amino]-3-methoxy-N-[5-(trifluoromethyl)indan-1-yl]pyridine-2-carboxamide] | ≥ 80 | ≥ 80 | ≥ 80 | ≥ 80 | – | ≥ 80
COc1ccc(Nc2cnsc2)nc1C(=O)NCc1cnc(C(F)(F)F)nc1 [Compound P-80, 6-(isothiazol-4-ylamino)-3-methoxy-N-[[2-(trifluoromethyl)pyrimidin-5-yl]methyl]pyridine-2-carboxamide] | – | – | ≥ 80 | – | – | –
COc1ccc(Nc2cc(F)nc(F)c2)nc1C(=O)NC1(C2CCCCC2)CC1 [Compound P-88, N-(1-cyclohexylcyclopropyl)-6-[(2,6-difluoro-4-pyridyl)amino]-3-methoxy-pyridine-2-carboxamide] | ≥ 80 | – | ≥ 80 | – | – | ≥ 80
COc1ccc(Nc2cc(F)nc(F)c2)nc1C(=O)NC1(C)CC1 [Compound P-92, 6-[(2,6-difluoro-4-pyridyl)amino]-3-methoxy-N-(1-methylcyclopropyl)pyridine-2-carboxamide] | – | – | ≥ 80 | – | ≥ 80 | –
COc1ccc(Nc2cncc(F)c2)nc1C(=O)NCC(C)(C)C [Compound P-105, N-(2,2-dimethylpropyl)-6-[(5-fluoro-3-pyridyl)amino]-3-methoxy-pyridine-2-carboxamide] | – | – | ≥ 80 | – | ≥ 80 | ≥ 80
CC(C)(C)NC(=O)c1cccc(Nc2cc(F)nc(F)c2)n1 [Compound P-114, N-tert-butyl-6-[(2,6-difluoro-4-pyridyl)amino]pyridine-2-carboxamide] | ≥ 80 | ≥ 80 | ≥ 80 | ≥ 80 | ≥ 80 | –
COc1ccc(Nc2cc(F)cc(F)c2)[n+]([O-])c1C(=O)NC(C)(C)C [Compound P-117, N-tert-butyl-6-(3,5-difluoroanilino)-3-methoxy-1-oxido-pyridin-1-ium-2-carboxamide] | ≥ 80 | ≥ 80 | ≥ 80 | ≥ 80 | ≥ 80 | ≥ 80
COc1ccc(Nc2ccnc(F)c2)nc1C(=O)NCC(C)(C)C [Compound P-136, N-(2,2-dimethylpropyl)-6-[(2-fluoro-4-pyridyl)amino]-3-methoxy-pyridine-2-carboxamide] | ≥ 80 | – | ≥ 80 | – | – | –
CCc1cccc(Nc2ccc(OC)c(C(=O)NCC(C)(C)C)n2)c1 [Compound P-137, N-(2,2-dimethylpropyl)-6-(3-ethylanilino)-3-methoxy-pyridine-2-carboxamide] | ≥ 80 | – | ≥ 80 | – | – | –
COc1ccc(Nc2cc(C)cc(C#N)c2)nc1C(=O)NCC(C)(C)C [Compound P-143, 6-(3-cyano-5-methyl-anilino)-N-(2,2-dimethylpropyl)-3-methoxy-pyridine-2-carboxamide] | – | – | ≥ 80 | – | – | –
COc1ccc(Nc2cc(F)nc(F)c2)nc1C(=O)NC(C)C(C)C (centres unmarked) [Compound P-167, 6-[(2,6-difluoro-4-pyridyl)amino]-N-(1,2-dimethylpropyl)-3-methoxy-pyridine-2-carboxamide] | – | – | ≥ 80 | – | ≥ 80 | –
COc1ccc(Nc2cc(F)nc(F)c2)nc1C(=O)NC(C)C(C)(C)C (centres unmarked) [Compound P-169, 6-[(2,6-difluoro-4-pyridyl)amino]-3-methoxy-N-(1,2,2-trimethylpropyl)pyridine-2-carboxamide] | – | – | ≥ 80 | – | ≥ 80 | –
COc1ccc(Nc2cc(F)nc(F)c2)nc1C(=O)NC(C)(C)C(C)(C)C [Compound P-174, 6-[(2,6-difluoro-4-pyridyl)amino]-3-methoxy-N-(1,1,2,2-tetramethylpropyl)pyridine-2-carboxamide] | – | – | ≥ 80 | ≥ 80 | – | –
COc1ccc(Nc2cc(F)cc(F)c2)nc1C(=O)NC1(c2cccc(Cl)n2)CCC1 [Compound P-177, N-[1-(6-chloro-2-pyridyl)cyclobutyl]-6-(3,5-difluoroanilino)-3-methoxy-pyridine-2-carboxamide] | ≥ 80 | ≥ 80 | ≥ 80 | ≥ 80 | ≥ 80 | ≥ 80
COc1ccc(Nc2cc(F)nc(F)c2)nc1C(=O)NC1(C(C)C)CCC1 [Compound P-181, 6-[(2,6-difluoro-4-pyridyl)amino]-N-(1-isopropylcyclobutyl)-3-methoxy-pyridine-2-carboxamide] | – | ≥ 80 | ≥ 80 | ≥ 80 | ≥ 80 | –
COc1ccc(Nc2cc(F)nc(F)c2)nc1C(=O)NC1(C2CCC2)CCC1 [Compound P-182, N-(1-cyclobutylcyclobutyl)-6-[(2,6-difluoro-4-pyridyl)amino]-3-methoxy-pyridine-2-carboxamide] | – | – | ≥ 80 | – | ≥ 80 | –
CCC1(NC(=O)c2nc(Nc3cc(F)nc(F)c3)ccc2OC)CCC1 [Compound P-183, 6-[(2,6-difluoro-4-pyridyl)amino]-N-(1-ethylcyclobutyl)-3-methoxy-pyridine-2-carboxamide] | – | ≥ 80 | ≥ 80 | ≥ 80 | ≥ 80 | –
COc1ccc(Nc2cc(F)nc(F)c2)nc1C(=O)NC1(c2cccc(Cl)n2)CCC1 [Compound P-184, N-[1-(6-chloro-2-pyridyl)cyclobutyl]-6-[(2,6-difluoro-4-pyridyl)amino]-3-methoxy-pyridine-2-carboxamide] | – | – | ≥ 80 | – | – | –
COc1ccc(Nc2cc(F)cc(F)c2)nc1C(=O)NC1CC(c2ccc(Cl)cc2)C1 (centres unmarked) [Compound P-187, N-[3-(4-chlorophenyl)cyclobutyl]-6-(3,5-difluoroanilino)-3-methoxy-pyridine-2-carboxamide] | ≥ 80 | ≥ 80 | ≥ 80 | ≥ 80 | – | –
COc1ccc(Nc2cc(F)nc(F)c2)nc1C(=O)NC1CC(c2ccc(Cl)cc2)C1 (centres unmarked) [Compound P-188] | – | – | ≥ 80 | – | – | –
